Reference: patent US20170328922A1, “METHODS AND PRODUCTS FOR LABELLING LIPIDS” (UNIVERSITY OF SOUTH AUSTRALIA, priority 2014, published 2017)

Experiments:
Assay type in all cases: binding
[1] = Rhenium probe-lipid overlay, Example 5
Procedure: (§1) To determine the binding properties of tricarbonyl-(4-cyanophenyltretrazolato)-phenanthroline-rhenium (I) (Rhenium probe) to various lipids, Rhenium probe-lipid overlay was performed using either lipids spotted onto PDVF membranes (Perkin Elmer, USA) or lipid MicroStrips (Echelon Biosciences Inc., Salt Lake City, Utah). The membranes contained at least 100 pmoles of each lipid in individual spots (supplementary table 1) or 10 μL (each in PBS) of 10% (v/v) glycerol, 1% (v/v) CHAPS, 1% (w/v) SDS, 1% (v/v) Tween20, Ecydsone (10 μg/100 μL), cholesterol (10 μg/100 μL), progesterone (10 μg/100 μL), PBS, or 1% (v/v) ethanol; and were incubated with 0.5 mM of Rhenium probe in 1% (w/v) BSA/PBS for 40 minutes and then washed four times for 10 minutes in PBS. Imaging was performed on an Image Quant Las 4000 (GE, Sweden) luminescent image analyser, with the Rhenium probe being detected by excitation at 460 nm using an epi-blue light source, and detected using an 605 nm ethidium bromide filter.

[2] = Rhenium molecular probe-lipid overlay (dot blot); design: key to interaction with Progesterone (dot blot): ✓ indicates a positive interaction; x indicates no interaction
Procedure: (§2) The experimental protocol probe-lipid overlay was as follows: 50 μM of each lipids was loaded on to PVDF membranes (Perkin Elmer, USA), which were then incubated with molecular probes. PhenCyano and PhenPyridyl were assessed against eleven lipids including; sphingomyelin (Cat # S0756, Sigma Aldrich, USA), sphingosine (Cat # S7049; Sigma Aldrich, USA), L-phosphatidylethanolamine (Cat # P7943, Sigma Aldrich, USA), monosialodanglioside (GM1; Cat # G7641, Sigma Aldrich, USA), oleoly-L-?-lysophosphatidic acid (Cat # L7260, Sigma Aldrich, USA), palmitic acid (Cat # P5917, Sigma Aldrich, USA), sphingomyelin (Cat # S0756, Sigma Aldrich, USA), sphingosine (Cat # S7049; Sigma Aldrich, USA), L-?-phosphatidylethanolamine (Cat # P7943, Sigma Aldrich, USA), monosialodanglioside (GM1; Cat # G7641, Sigma Aldrich, USA), progesterone (Cat #102722, MP Biomedical, USA), ceramide (Cat # C2137; Sigma Aldrich, USA), triacylglycerol mix C2-C10 (Cat #17810, Sigma Aldrich, USA) and cholesteryl acetate (Cat #151114; Sigma Aldrich, USA).
(§3) Lipids were dissolved in ethanol, methanol or isopropanol for loading depending on solubility. Following lipid loading, membranes were left to dry for 20-30 minutes, then they were washed for 10 minutes in cold 10% ethanol, before they were incubated with 10 μM solution of each Rhenium molecular probe in cold 10% ethanol for one hour. Membranes were than washed four times for 10 minutes in cold 10% ethanol prior to imaging. Imaging was performed on an Image Quant Las 4000 (GE, Sweden) luminescent image analyser, with the Rhenium molecular probe being detected by excitation at 460 nm using an epi-blue light source, and detected using an 575 nm ethidium bromide filter.

albumin = albumin (Homo sapiens, UniProt P02768); assay: Rhenium probe overlay, Example 5; conditions: neither ... nor ... reacted with the probe
Sequence of albumin (P02768 25-609, species assumed): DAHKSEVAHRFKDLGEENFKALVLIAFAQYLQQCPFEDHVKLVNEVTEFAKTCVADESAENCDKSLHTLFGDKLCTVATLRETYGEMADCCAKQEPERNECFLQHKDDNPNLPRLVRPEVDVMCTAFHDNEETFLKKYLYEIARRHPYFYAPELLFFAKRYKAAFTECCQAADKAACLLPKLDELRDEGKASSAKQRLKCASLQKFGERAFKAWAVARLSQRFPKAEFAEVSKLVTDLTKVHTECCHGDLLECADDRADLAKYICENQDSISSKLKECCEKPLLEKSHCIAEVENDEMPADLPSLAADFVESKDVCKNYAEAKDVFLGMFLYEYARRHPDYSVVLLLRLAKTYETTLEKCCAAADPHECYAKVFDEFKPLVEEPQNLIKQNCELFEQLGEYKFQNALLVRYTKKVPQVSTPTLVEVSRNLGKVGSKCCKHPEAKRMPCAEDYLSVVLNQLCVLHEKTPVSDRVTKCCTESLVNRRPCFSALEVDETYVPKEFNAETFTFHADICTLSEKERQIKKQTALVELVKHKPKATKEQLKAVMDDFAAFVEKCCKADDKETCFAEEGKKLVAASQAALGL
Procedure: as §1

[3] = Rhenium molecular probe-lipid overlay (dot blot); design: key to interaction with Ceramide (dot blot): ✓ indicates a positive interaction; x indicates no interaction
Procedure: as §2, §3

[4] = 0.5 mM probe in 1% BSA/PBS, FIG. 6
[5] = 10 μM probe, 50 μM lipid on PVDF membrane

N#Cc1ccc(-c2nn[n]([Re](=[C]=O)(=[C]=O)=[C]=O)n2)cc1.c1cnc2c(c1)ccc1cccnc12 [PhenCyano, Triscarbonyl phenanthroline (4-cyanophenyltetrazolato)Rhenium(I)]
reactivity with long chain fatty acids ([1]; 0.5 mM probe in 1% BSA/PBS): did not react | reactivity with neutral lipids ([1]; 0.5 mM probe in 1% BSA/PBS): did not react | interaction with cholesterol [1, 4]: interacted | interaction with ecdysone [1, 4]: interacted | interaction with progesterone [1, 4]: interacted | reactivity with CHAPS [1, 4]: high level of reactivity | reactivity with deoxycholate [1, 4]: high level of reactivity | reactivity with SDS ([1]; auto-reactivity of SDS alone at 575-605 nm on membrane): some residual background reactivity | reactivity with Tween® 20 ([1]; auto-reactivity of Tween 20 alone at 575-605 nm on membrane): some residual background reactivity | interaction with Progesterone (dot blot) [2, 5]: ✓ | affinity towards progesterone, in words ([2]; FIG. 7): some affinity | reactivity with albumin (albumin): Neither | interaction with Ceramide (dot blot) [3, 5]: x | interaction with ceramide, in words ([3]; FIG. 7): no interaction detected
